Results on 21 molecules are retold here after ChEMBL document CHEMBL1140659, “Respiratory syncytial virus fusion inhibitors. Part 5: Optimization of benzimidazole substitution patterns towards derivatives with improved activity” (Bioorg Med Chem Lett, 2007).

In data set [1] the test system is Respiratory syncytial virus. The data set is described as follows: Antiviral activity against RSV long A with F1 protein K394R mutation in HEp2 cells. The format is functional, organism-based.
Data set [2] can be described thus: Cytotoxicity against human HEp2 cells. The format is cell-based, HEp-2.
Data set [3] is described as follows: Therapeutic index, ratio of CC50 for HEp2 to EC50 for RSV long A. The settings on record: human, HEp2 cells; read-out: Ratio CC50/EC50.

As to `O=c1n(Cc2nc3ccccc3n2CCCCO)c2cnccc2n1C1CC1`, the concentration for a half-maximal effect (EC50) in data set [1] is greater than 20 µM.

For the molecule `CC(C)CCn1c(Cn2c(=O)n(C(C)C)c3ccccc32)nc2ccc(C(=O)O)cc21`, the EC50 in data set [1] was 238 µM. In data set [2], this molecule displayed a CC50 of 125 µM. Besides, the selectivity ratio in data set [3] is 0.525.

Molecule `CC(C)CCn1c(Cn2c(=O)n(C(C)C)c3ccccc32)nc2ccc(CN)cc21` displayed an EC50 in data set [1] of 0.095 µM. The molecule further returned a half-maximal cytotoxic concentration (CC50) in data set [2] of 28.1 µM. In addition, in data set [3], the selectivity ratio stood at 296.

In data set [1], `CNCc1ccc2nc(Cn3c(=O)n(C(C)C)c4ccccc43)n(CCC(C)C)c2c1` displayed an EC50 of 187 µM. In data set [2], this molecule had a CC50 of 4.81 µM. Moreover, the selectivity ratio in data set [3] turned out to be 0.026.

`CC(C)CCn1c(Cn2c(=O)n(C(C)C)c3ccccc32)nc2ccc(CN(C)C)cc21` showed a concentration giving a half-maximal response (EC50) in data set [1] of 182 µM. In data set [2], this molecule registered a CC50 of 26.7 µM. Also, in data set [3], the selectivity ratio turned out to be 0.026.

`CC(C)CCn1c(Cn2c(=O)n(C(C)C)c3ccccc32)nc2ccc(CCN)cc21` registered a concentration for a half-maximal effect (EC50) in data set [1] of 7.11 µM. In addition, half-maximal cytotoxicity in data set [2] (CC50) was put at 57 µM. Moreover, the selectivity ratio in data set [3] was 8.02.

As to `CC(C)CCn1c(Cn2c(=O)n(CC(=O)O)c3ccccc32)nc2cc(C(=N)N)ccc21`, in data set [1], a half-maximal effect (EC50) was put at 0.031 µM. The same molecule yielded a CC50 in data set [2] of 173 µM. For the same molecule, the selectivity ratio in data set [3] is 5570.

Regarding `C=C(C)n1c(=O)n(Cc2nc3cc(/C(N)=N\O)ccc3n2CCC(C)C)c2ccccc21`, the EC50 in data set [1] was 0.005 µM. Further, the CC50 in data set [2] was 3.47 µM. In addition, the selectivity ratio in data set [3] was found to be 694.

In turn, `CC(C)CCn1c(Cn2c(=O)n(C(C)C)c3ccccc32)nc2cc(CF)ccc21` gave a concentration for a half-maximal effect (EC50) in data set [1] of 0.047 µM. The molecule also showed a CC50 in data set [2] of 37.3 µM. Further, the selectivity ratio in data set [3] turned out to be 793.

Regarding `CC(C)CCn1c(Cn2c(=O)n(CC(=O)OC(C)(C)C)c3ccccc32)nc2cc(/C(N)=N\O)ccc21`, it took 0.016 µM to reach a half-maximal effect in data set [1] (EC50). In data set [2], this molecule returned a CC50 of 19.8 µM. Also, the selectivity ratio in data set [3] worked out at 1240.

Take `CC(C)CCn1c(Cn2c(=O)n(C(C)C)c3ccccc32)nc2cc(CO)ccc21`: a half-maximal effect in data set [1] (EC50) was put at 0.05 µM. This molecule showed a CC50 in data set [2] of 31.6 µM. Besides, in data set [3], the selectivity ratio worked out at 632.

In data set [1], `CC(C)CCn1c(Cn2c(=O)n(C(C)C)c3ccccc32)nc2cccc(CO)c21` had an EC50 of 246 µM. The molecule further showed a CC50 in data set [2] of 246 µM. Further, the selectivity ratio in data set [3] was 1.

`CC(C)CCn1c(Cn2c(=O)n(C(C)C)c3ccccc32)nc2cccc(N=[N+]=[N-])c21` gave a concentration giving a half-maximal response (EC50) in data set [1] of 3.7 µM. This molecule had a CC50 in data set [2] of 57.9 µM. For the same molecule, in data set [3], the selectivity ratio was found to be 15.6.

On to `CC(C)CCn1c(Cn2c(=O)n(C(C)C)c3ccccc32)nc2cccc(CN)c21`, for which, in data set [1], a half-maximal effect (EC50) was put at 192 µM. For the same molecule, in data set [2], half-maximal cytotoxicity (CC50) was put at 11 µM. The selectivity ratio in data set [3] is 0.058.

`COC(=O)c1cccc2nc(Cn3c(=O)n(C(C)C)c4ccccc43)n(CCC(C)C)c12` returned an EC50 in data set [1] of 230 µM. The molecule further showed a CC50 in data set [2] of 25.3 µM. Further, the selectivity ratio in data set [3] was found to be 0.11.

In turn, `CC(C)CCn1c(Cn2c(=O)n(C(C)C)c3ccccc32)nc2ccc(C#N)cc21` came in with an EC50 in data set [1] of 0.044 µM. This molecule also came in with a CC50 in data set [2] of 10 µM. Moreover, the selectivity ratio in data set [3] is 228.

As for `CC(C)CCn1c(Cn2c(=O)n(C(C)C)c3ccccc32)nc2ccc(C(N)=O)cc21`, it took 123 µM to reach a half-maximal effect in data set [1] (EC50). In data set [2], this molecule registered a CC50 of 49.9 µM. The selectivity ratio in data set [3] was determined as 0.406.

The molecule `CC(C)CCn1c(Cn2c(=O)n(C(C)C)c3ccccc32)nc2cc(/C(N)=N\O)ccc21` returned a concentration for a half-maximal effect (EC50) in data set [1] of 0.111 µM. Also, the CC50 in data set [2] stood at 9.14 µM. In addition, the selectivity ratio in data set [3] was found to be 82.2.

In the case of `C=C(C)n1c(=O)n(Cc2nc3ccccc3n2CCC(C)C)c2ccccc21`, the concentration giving a half-maximal response (EC50) in data set [1] was 0.004 µM. Moreover, the half-maximal cytotoxic concentration (CC50) in data set [2] stood at 24.6 µM. The selectivity ratio in data set [3] was 6160.

As for `CC(C)CCn1c(Cn2c(=O)n(C(C)C)c3ccccc32)nc2ccc(CO)cc21`, in data set [1], the 50% effective concentration (EC50) is 0.134 µM. The half-maximal cytotoxic concentration (CC50) in data set [2] was 81.6 µM. Further, the selectivity ratio in data set [3] is 609.

With `N=C(N)c1ccc2nc(Cc3nc4ccc(C(=N)N)cc4[nH]3)[nH]c2c1`, the EC50 in data set [1] amounted to 100 µM.

As usually defined, the EC50 is the concentration giving half of the maximal effect. A lower EC50 goes with a more potent agent. A word on the CC50: it is the concentration that lowers cell viability or growth by half. A high value points to better tolerance by the cells.
